Experimental data reported in US10544138B2, “Tricyclic kinase inhibitors of MELK and methods of use” (Dana-Farber Cancer Institute, Inc., priority 2015, dated 2020).
Several values for one entry are separate records, joined by “and”; a condition that tells them apart may be missing. Identical values can stand only once.

What was measured:
[1] = test system: Cyclin B1, MELK, and Aurora B; assay: Spindle assembly checkpoint signaling, abundance of mitotic factors by immunoblotting; assay type: cell-based; details: nocodazole- or paclitaxel-arrested cells
Protocol: (§1) Mitotic cells were treated with THZ-4-63-1 at indicated concentrations for 4 h. Cells were collected for immunoblotting. Panel B contains time-lapse images of U2OS-(H2B-GFP) cells treated with THZ-4-63-1 (5 μM). […] Panel C contains blots showing proteasome-mediated degradation of Cyclin B1, Aurora B and MELK in THZ-4-63-1-induced mitotic slippage. Mitotic cells were treated as in Panel A with THZ-4-63-1 (5 μM), or MG132 (10 μM), or both for 4 h. Panel D contains a graph showing quantification of cell proliferation in the indicated breast cancer cell lines, which were treated with vehicle control or THZ-4-63-1 for one week (Top) and also contains bright-field images acquired from control cells or cells treated with THZ-4-63-1 (111 nM) (Bottom). […] Cells were treated with indicated drugs, and harvested in ten days for quantification of cell growth. The bold curve depicts the theoretic prediction of an additive action between paclitaxel and THZ-4-63-1.
In Panel A, paclitaxel-arrested cells were treated with THZ-4-63-1 at indicated concentrations for 4 h. Cells were collected for immunoblotting. In Panel B, nocodazole- (top) or paclitaxel-arrested mitotic cells were treated with vehicle control or THZ-4-63-1 (5 μM) for increasing time. Cell lysates were collected for immunoblotting. […]

[2] = test system: basal breast cancer cells; assay: Proliferation of basal breast cancer cells; assay type: cell-based
Protocol: as §1
With the identification of a selective MELK inhibitor, we next tested if THZ-4-63-1 is an effective agent for those cancer cells. […] The high potency of THZ-4-63-1 not only confirm the previous identification of MELK as an essential kinase for breast cancer, but also poise the compound itself for immediate translational implications.

MELK = MELK (Homo sapiens, UniProt Q14680); assay: Z′-LYTE biochemical assay, MELK inhibition; parameters: purchased Life Technologies; details: 25 uM ATP concentration; read-out: MELK IC50 as determined by Z′-LYTE biochemical assay
Sequence of MELK (Q14680 whole entry): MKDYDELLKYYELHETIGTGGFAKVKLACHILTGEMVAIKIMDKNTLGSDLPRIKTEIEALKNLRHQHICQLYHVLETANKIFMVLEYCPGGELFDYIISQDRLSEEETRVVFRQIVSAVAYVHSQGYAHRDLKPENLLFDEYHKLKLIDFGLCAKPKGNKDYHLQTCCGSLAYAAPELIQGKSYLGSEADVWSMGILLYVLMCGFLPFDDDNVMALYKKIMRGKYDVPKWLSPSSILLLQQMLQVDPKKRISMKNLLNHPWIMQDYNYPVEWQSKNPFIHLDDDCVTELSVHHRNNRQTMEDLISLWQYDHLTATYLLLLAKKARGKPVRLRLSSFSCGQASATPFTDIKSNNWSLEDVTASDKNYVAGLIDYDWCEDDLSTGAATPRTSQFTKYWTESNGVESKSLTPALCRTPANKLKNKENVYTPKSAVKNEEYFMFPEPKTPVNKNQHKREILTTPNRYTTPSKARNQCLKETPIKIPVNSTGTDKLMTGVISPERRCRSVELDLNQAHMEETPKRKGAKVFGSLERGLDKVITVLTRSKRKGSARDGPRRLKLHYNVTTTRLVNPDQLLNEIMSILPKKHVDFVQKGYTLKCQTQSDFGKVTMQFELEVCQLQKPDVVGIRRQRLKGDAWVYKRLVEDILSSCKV
Protocol: The invention also provides methods for inhibiting MELK, comprising contacting MELK with a compound of the invention in an amount effective to inhibit MELK. In certain embodiments, the method is conducted in vitro. In certain embodiments, the method is conducted in vivo. Inhibition of MELK can be determined by the Z′-LYTE® biochemical assay from Life Technologies (Life Technologies Z′-LYTE® Screening Protocol and Assay Conditions, June 2012, incorporated herein by reference).
Generally, IC50 against MELK was determined by Z′-LYTE® biochemical assay and are measured in nM at 25 uM ATP concentration.

BRSK1 = molecular target: T1, BRSK1 (Homo sapiens, UniProt Q8TDC3); assay: Recombinant AMPK family kinase assay, BRSK1; assay type: biochemical; details: recombinant kinases
T1 sequence (Q8TDC3 1-778): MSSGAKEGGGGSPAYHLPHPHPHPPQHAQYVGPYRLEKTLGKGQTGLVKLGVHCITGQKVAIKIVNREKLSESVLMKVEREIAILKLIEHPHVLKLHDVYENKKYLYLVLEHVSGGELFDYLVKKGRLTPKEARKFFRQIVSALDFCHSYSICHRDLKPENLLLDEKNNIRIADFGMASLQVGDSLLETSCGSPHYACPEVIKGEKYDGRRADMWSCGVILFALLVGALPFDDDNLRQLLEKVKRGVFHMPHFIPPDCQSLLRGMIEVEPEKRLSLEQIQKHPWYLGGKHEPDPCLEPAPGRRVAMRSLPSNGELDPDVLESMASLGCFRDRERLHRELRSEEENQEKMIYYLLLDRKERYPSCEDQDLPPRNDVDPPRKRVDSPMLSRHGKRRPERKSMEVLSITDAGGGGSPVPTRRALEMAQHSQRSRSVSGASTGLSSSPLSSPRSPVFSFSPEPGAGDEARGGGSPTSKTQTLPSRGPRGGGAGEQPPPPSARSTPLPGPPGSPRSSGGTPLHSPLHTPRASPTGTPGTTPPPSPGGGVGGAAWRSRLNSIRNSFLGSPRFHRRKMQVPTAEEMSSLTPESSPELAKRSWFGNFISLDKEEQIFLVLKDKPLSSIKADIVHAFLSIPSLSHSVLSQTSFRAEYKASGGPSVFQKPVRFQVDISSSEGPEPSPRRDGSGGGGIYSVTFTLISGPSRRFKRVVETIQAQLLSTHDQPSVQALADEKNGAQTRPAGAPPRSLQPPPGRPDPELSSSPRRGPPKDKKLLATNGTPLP
Protocol: (§2) […] assays were performed with recombinant protein of the indicated mitotic kinase (left) and AMPK family kinases (right) in the presence of THZ-4-63-1. […] Cells were treated with nocodazole (100 ng/ml) for 18 h or not treated (Asyn., asynchronous). Nocodazole-arrested mitotic cells (M) were isolated via shake-off. The attached cells enriched in G2 phase (G2) were harvested. A portion of the mitotic cells were washed off nocodazole and released into G1 phase after 4 hours of incubation (G1). […] In Panel D, mitotic lysates were prepared from the indicated cells, and treated with λ-phosphatase at 30° C. In Panel E, nocodazole-arrested mitotic cells were treated with increasing concentration of THZ-4-63-1 for 30 min. Cell lysates were subjected to immunoblotting.
(§3) To discover a selective MELK inhibitor, a few molecule scaffolds with the potential of binding to MELK were identified, including 2,4-disubstituted pyrimidines and benzonaphthyridinones. […] To investigate if THZ-4-63-1 confers selective inhibition on MELK, we tested its effect on other mitotic kinases. In assays using recombinant kinases, MELK kinase activity was 20-fold more sensitive to THZ-4-63-1, than that of Aurora A, Aurora B, CDK1, or PLK1 (FIG. 1B).

Aurora B = Aurora B (Homo sapiens, UniProt Q96GD4); assay: Recombinant mitotic kinase assay, Aurora B; assay type: biochemical; details: recombinant kinases
Sequence of Aurora B (Q96GD4 whole entry): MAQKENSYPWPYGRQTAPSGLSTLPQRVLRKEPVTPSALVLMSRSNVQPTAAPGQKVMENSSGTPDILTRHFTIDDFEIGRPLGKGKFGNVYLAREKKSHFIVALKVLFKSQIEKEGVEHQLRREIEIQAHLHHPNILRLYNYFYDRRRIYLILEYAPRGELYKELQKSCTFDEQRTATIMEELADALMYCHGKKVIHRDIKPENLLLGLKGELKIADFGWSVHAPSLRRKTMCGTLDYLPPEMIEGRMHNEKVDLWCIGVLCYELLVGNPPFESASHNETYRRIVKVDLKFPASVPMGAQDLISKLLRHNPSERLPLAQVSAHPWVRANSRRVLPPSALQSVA
Protocol: as §2, §3

U2OS-(H2B-GFP) cells = assay: Mitotic slippage, time-lapse imaging of U2OS-(H2B-GFP) cells; assay type: cell-based, human; details: 5 μM, 4 h exposure
Protocol: as §1
Centromeric localization of CPC has been implicated in checkpoint signaling^8. […] We further found an impaired spindle checkpoint in cells with MELK knockdown (FIG. 9C).

PLK1 = PLK1 (Homo sapiens, UniProt P53350); assay: Recombinant mitotic kinase assay, PLK1; assay type: biochemical; details: recombinant kinases
Sequence of PLK1 (P53350 whole entry, species assumed): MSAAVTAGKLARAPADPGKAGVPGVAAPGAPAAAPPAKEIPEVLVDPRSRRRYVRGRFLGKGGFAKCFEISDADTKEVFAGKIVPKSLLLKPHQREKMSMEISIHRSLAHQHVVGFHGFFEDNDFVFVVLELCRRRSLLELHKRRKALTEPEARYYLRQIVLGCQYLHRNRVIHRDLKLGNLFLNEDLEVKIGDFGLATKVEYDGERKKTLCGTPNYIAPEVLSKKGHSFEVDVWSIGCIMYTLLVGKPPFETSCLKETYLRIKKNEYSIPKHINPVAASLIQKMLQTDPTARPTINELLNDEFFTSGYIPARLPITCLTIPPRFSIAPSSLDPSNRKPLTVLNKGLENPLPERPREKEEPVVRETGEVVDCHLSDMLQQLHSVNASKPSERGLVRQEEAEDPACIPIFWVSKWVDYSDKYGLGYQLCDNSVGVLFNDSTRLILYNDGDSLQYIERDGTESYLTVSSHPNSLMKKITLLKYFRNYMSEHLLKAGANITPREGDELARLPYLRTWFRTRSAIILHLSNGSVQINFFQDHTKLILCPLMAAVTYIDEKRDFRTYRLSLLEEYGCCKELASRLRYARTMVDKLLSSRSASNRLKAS
Protocol: as §2, §3

CN(C)Cc1ccc(-n2c(=O)ccc3cnc4ccc(-c5cc(Cl)c(O)c(Cl)c5)cc4c32)cc1 [THZ-4-63-1]
Protein amount of mitotic factors (Cyclin B1, MELK, Aurora B) [1]: efficiently reduced the protein amount of these mitotic factors
IC50 ([2]; 168 h, treated one week): ~50 nM
Cell death at low nanomolar dose ([2]; basal breast cancer cells): nearly complete cell death
IC50 (MELK): 10.8 nM and 10.5 nM
Selectivity for MELK over BRSK1 (BRSK1): preferentially targets MELK
MELK kinase activity more sensitive than that of Aurora B (Aurora B): 20 fold
Cells undergoing mitotic slippage (U2OS-(H2B-GFP) cells): nearly half
MELK kinase activity more sensitive than that of PLK1 (PLK1): 20 fold
